Experimental data as given in patent publication US5162523A, “Cephalosporin antibacterial compounds” (Hoffmann-La Roche Inc., priority 1990, dated 1992).
Where a name gives a salt, the structure may show the parent alone.

Experiment: Stability of the product (observation during preparation)
Type: physicochemical
Details: observed during preparation and purification

CCn1cc(C(=O)O)c(=O)c2cc(F)c(N3CCN(C=N[C@@H]4C(=O)N5[C@@H]4SC(C)(C)[C@@H]5C(=O)O)CC3)nc21 [Compound H, [2S-(2α,5α,6β)]-7-[4-[[(2-Carboxy-2,3-dimethyl-7-oxo-4-thia-1-azabicyclo[3.2.0]-hept-6-yl)imino]methyl]-1-piperazinyl]-1-ethyl-6-fluoro-1,4-dihydro-4-oxo-1,8-naphthyridine-carboxylic acid disodium salt]
stability of the product: very unstable
